Structures are written as SMILES.

The record followed here is patent US20240042065A1, “THERANOSTIC AGENTS” (priority 2022, published 2024).

A short description of this series: NMR relaxivity studies (R1 relaxivity). In kind it is physicochemical. The settings on record: Gd(III) complexes of DTPA analogues. How it is done: The potential of L1 and L2 to be used in magnetic resonance imaging/Optical Imaging (MRI/OI) was evaluated by measuring their (a) thermodynamic stability by stability constants with potentiometric titrations; (b) R1 relaxivities by NMR relaxivity studies and (c) spectrophotometric (luminescence) investigations.
The diagnostic moiety of the theranostic agent of the present invention enhances MR images when the patient is subjected to the magnetic field of the MR scanning machine by altering the T1 relaxation of local water protons. The paramagnetic relaxation of water protons arises as a result of dipole-dipole interactions between the proton nuclear spins and that of the oscillating magnetic field of MR machine caused by the interaction with the unpaired electron spins of paramagnetic metal ion in the complex, under pulse of radio frequency. The overall paramagnetic water proton relaxation rate enhancement (i.e. proton relaxivity) is governed by two factors, namely inner sphere and outer sphere contributions. […] This profile measures molecular dynamics taking place within the said complex understudy in a quantitative manner in the time scales of milliseconds to nanoseconds. […]

Consider `O=C(O)CN(CCN(CCN(CC(=O)O)CC(=O)O)CCN1C(=O)c2cccc3cccc(c23)C1=O)CC(=O)O` [Type A], for which the “relaxivity (in words)” value is “high relaxivity”.
